Assay results taken from patent publication US20040265984A1, “Methods of growing crystals of free, antibiotic-complexed, and substrate-complexed large ribosomal subunits, and methods of rationally designing or identifying antibiotics using structure coordinate data derived from such crystals” (priority 2001, published 2004).
{Puro} = puromycin of the RNA

How the values were obtained:
ribosomes [1] = conditions: cited from earlier work; for binding to the ribosome: result in words
ribosomes [2] = conditions: cited from earlier work
E. coli = conditions: U/U at 23S rRNA positions C803DR/C1773DR; cited from earlier work
Heliobacter pylori = Heliobacter pylori (U/U); cited from earlier work
Haemophilus influenzae = Haemophilus influenzae (A/C); cited from earlier work
D50S = assay: X-ray crystallography of D50S-ligand complex crystals (co-crystallization or soaking); type: binding, D. radiodurans; conditions: result in words, from complex crystals and electron-density maps
Method: Growth of D50S crystals: D. radiodurans LRSs were isolated, and crystals of D50S belonging to the space-group […] were grown as described in Example 1, above. Co-crystallization of D50S with antibiotics was carried out in the presence of 0.8-3.5 mM of the antibiotics chloramphenicol, clindamycin, erythromycin, and roxithromycin. Co-crystallization of D50S with clarithromycin was achieved by soaking D50S crystals in solutions containing 0.01 mM of this antibiotic.
X-ray diffraction: Data were collected at 85 K from shock-frozen crystals with a bright SR beam at ID19 at APS/ANL, ID14/2 and 4 at ESRF/EMBL, and at BW6 at DESY. Data were recorded on MAR345, Quantum 4, or APS-CCD detectors and processed with HKL2000 (Otwinowski, Z. and Minor, W., 1997. Macromolecular Crystallography, Pt A 276, 307).
Placements and refinement: The 3.1 Å structure of D50S described in Example 1, above, was refined against the structure factor amplitudes of each of the antibiotic-D50S complexes, using rigid body refinement as implemented in CNS (Brunger, A. T. et al., 1998. Acta Crystallographica Section D-Biological Crystallography 54, 905). SigmaA-weighted difference maps were used for the initial manual placement of the antibiotics. Each of the D50S-antibiotic models was further refined using REFMAC software (Murshudov, G. N. et al., 1999. Acta Cryst section D55, 247). For the calculation of free R-factor a subset of reflections (10% of the data) was omitted from the refinement. The structure coordinates of the antibiotic-D50S complexes were submitted to the PDB under accession numbers 1JZX, 1JZY, 1JZZ, 1K00, and 1K01.
Crystallization: Crystals of the large ribosomal subunit of D. radiodurans (D50S) were generated as described in Example 1 above (Harms J. et al., 2001. Cell 107, 679-688; Schlüenzen et al., 2001. Nature 413, 814-821). […]
X-ray diffraction: Data were collected at 85 K from shock-frozen crystals using a synchrotron radiation beam at ID 19 at Argonne Photon Source/Argonne National Laboratory (APS/ANL) and ID14/2, ID14/4 at the European Synchrotron Radiation Facility/European Molecular Biology Laboratory (ESRF/EMBL). Data were recorded on Quantum 4 or APS-CCD detectors and processed with HKL2000 (Otwinowski, Z. and Minor, W., 1997. Macromolecular Crystallography Pt A. 276, 307) and the CCP4 suite (Bailey, S., 1994. Acta Cryst D. 50, 760).
Localization and refinement: The 3.1 Å structure of D50S (PDB accession code 1LNR) was refined against the structure factor amplitudes of each of the two D50S-antibiotic complexes, using rigid body refinement as implemented in CNS (Brunger, A. T. et al., 1998. Acta Crystallographica Section D-Biological Crystallography 54, 905-921). […] The positions of the antibiotics were readily determined from sigmaA-weighted difference maps. […]

**Q.** With `COc1ccc(C[C@H](N)C(=O)N[C@H]2[C@@H](O)[C@H](n3cnc4c(N(C)C)ncnc43)O[C@@H]2CO)cc1` [Puromycin] as the molecule, how does the “binding to the ribosome” value (ribosomes [1]) read?
**A.** Its value is “binds weakly”.

**Q.** Which “length of peptides produced by erythromycin-bound ribosomes” value (ribosomes [2]) does the source give for `CC[C@H]1OC(=O)[C@H](C)[C@@H](O[C@H]2C[C@@](C)(OC)[C@@H](O)[C@H](C)O2)[C@H](C)[C@@H](O[C@@H]2O[C@H](C)C[C@H](N(C)C)[C@H]2O)[C@](C)(O)C[C@@H](C)C(=O)[C@H](C)[C@@H](O)[C@]1(C)O` [erythromycin] here?
**A.** The value was “up to 8 residues”.

**Q.** With `CC[C@H]1OC(=O)[C@H](C)C(=O)[C@H](C)[C@@H](O[C@@H]2O[C@H](C)C[C@H](N(C)C)[C@H]2O)[C@](C)(OC)C[C@@H](C)C(=O)[C@H](C)[C@@H](O)[C@]1(C)O` [RU56006] as the molecule, how does the Kd (ribosomes [1]; compared with erythromycin) read?
**A.** The Kd was “same order of magnitude as that of erythromycin”.

**Q.** For `CC[C@H]1OC(=O)[C@H](C)C(=O)[C@H](C)[C@@H](O[C@@H]2O[C@H](C)C[C@H](N(C)C)[C@H]2O)[C@](C)(OCC=Cc2cnc3ccccc3c2)C[C@@H](C)C(=O)[C@H](C)[C@H]2NC(=O)O[C@@]21C` [ABT-773], which “susceptibility to ABT-773” value (E. coli) is on record?
**A.** The value was “equally susceptible”.

**Q.** What about the “susceptibility to ABT-773” value (Heliobacter pylori) of the same molecule?
**A.** Its value is “equally susceptible”.

**Q.** What about the “susceptibility to ABT-773” value (Haemophilus influenzae) of the same molecule?
**A.** Its value is “equally susceptible”.

**Q.** What about the “binding to D50S” value (D50S) of the same molecule?
**A.** The value was “high affinity”.

**Q.** For `CSC[S@+]([O-])C[C@H](CO)NC(=O)/C=C/c1c(C)[nH]c(=O)[nH]c1=O` [sparsomycin], which “binding to D50S” value (D50S) is on record?
**A.** The value was “almost quantitative binding”.

**Q.** And the “binding to the ribosome” value (ribosomes [1])?
**A.** The value was “weak binding”.

**Q.** With `CC[C@H]1OC(=O)[C@H](C)[C@@H](O[C@H]2C[C@@](C)(OC)[C@@H](O)[C@H](C)O2)[C@H](C)[C@@H](O[C@@H]2O[C@H](C)C[C@H](N(C)C)[C@H]2O)[C@](C)(O)C[C@@H](C)CN(C)[C@H](C)[C@@H](O)[C@]1(C)O` [azithromycin, 9-deoxy-9A-methyl-9A-aza-9A-homoerythromycin] as the molecule, how does the “binding to D50S” value (D50S) read?
**A.** Its value is “high affinity”.

**Q.** Which “binding to D50S” value (D50S) does the source give for “ACCP: puromycin-coupled RNA molecule having the sequence 5′-ACC-Puro; substrate analog mimicking the CCA 3′ end of the tRNA acceptor stem (RNA, 3' {Puro}, backbone not given here)” here?
**A.** The value was “bind well”.
